Test results as given in patent US4766141A, “Spiro-succinimides for treatment of diabetes complications” (Pfizer Inc., priority 1987, dated 1988).

Experiments:
[1] = tested on: sorbitol accumulation in the sciatic nerve and lens of diabetic rats; experiment: Inhibition of sorbitol accumulation in sciatic nerve and lens of streptozotocin-diabetic rats; type: in vivo; conditions: sacrifice at 27 h, relative to control
Description: Rel 1,3'S,3R Spiro[naphthalene-1(4H),3'-pyrrolidine]-2', 4,5'-trione-2,3-dihydro-7-fluoro-3-methyl, the product prepared according to the procedure of Example 1B, was tested for its ability to reduce or inhibit sorbitol accumulation in the sciatic nerve and lens of diabetic rats. This was done by following the procedure described by M. J. Peterson et al. in Metabolism, Vol. 28, No. 4, Suppl. 1, p. 456 (1979). A single intravenous dose of streptozotocin (85 mg./kg.) was administered to rats. The test compound was fed to the rats orally at four, seven and 24 hours after the administration of the streptozotocin. At 27 hours after streptozotocin administration, the animals were sacrificed and the sciatic nerve and lens were both removed for sorbitol assay. The control animals were given the same streptozotocin treatment, but were not given the test compound. The results obtained are expressed in terms of percent inhibition of sorbitol (i.e., relative to the control) afforded by the test compound in both the sciatic nerve and lens at three different dosage levels tested (viz., 2.5, 1.5 and 1.0 mg./kg.).

[2] = Titration with 0.5 N sodium hydroxide (pKa); type: physicochemical
Description: A. 12.5 g. of crude 5-carboxy-3-cyano-3-(3-fluorophenyl)-5-methylhexanoic acid dimethyl ester was combined with 62.5 ml. of concentrated sulfuric acid and was heated at 70° C. for 2.5 hours. The reaction was quenched over ice and extracted with three-100 ml. portions of ethyl acetate. The ethyl acetate solution was extracted with pH 11 aqueous sodium hydroxide. The aqueous base layer was washed with ethyl acetate, and the aqueous layer was adjusted to pH 2 with hydrochloric acid and extracted with four-100 ml. portions of ethyl acetate. After drying over anhydrous sodium sulfate, the ethyl acetate extract was concentrated in vacuo to an oil and eventually to a white foam. This was triturated for 20 hours with isopropyl alcohol-diethyl ether to give, after drying at 110° C. at reduced pressure, 610 mg. of the title compound, m.p. 200°-202° C. (shrinks), 212°-215° C. (decomp.). Anal. (C14 H12 O3 NF). Calcd. C,64.36; H,4.63; N,5.36. Found: C,64.25; H,4.60; N,5.42. IR(KBr): 3228, 1723, 1705, 1692, 1605, 1343, 1236, 1199, 1186 cm^-1. NMR 250 MHZ (CD3 SOCD3):δ11.7 (vbs, 1, NH), 7.97(m, 1), 7.31(m, 1 ), 7.13(m, 1), 3.5-2.1(m, 5), and 1.16(d, 3) ppm. […] This experiment defines the structure of the major diasteromer as the title spiro[naphthalene pyrrolidine]trione rather than the alternate indanone spiro-methyl glutarimide cyclization product. […]

[3] = target: T1, aldose reductase obtained from human placenta (Homo sapiens, UniProt P15121); experiment: Inhibition of aldose reductase obtained from human placenta; type: biochemical; conditions: relative to activity in absence of inhibitor, read-out: percent inhibition of aldose reductase enzyme activity
T1 construct: aldose reductase obtained from human placenta; from tissue; host or cells: human placenta
Description: Rel 1,3'S,3R Spiro[naphthalene-1(4H),3'-pyrrolidine]-2',4,5'-trione-2,3-dihydro-7-fluoro-3-methyl, the product prepared according to the procedure of Example 1B, was tested for inhibition of aldose reductase obtained from human placenta by using the procedure described by M. J. Peterson et al. in Metabolism, Vol. 28, No. 4, Suppl. 1, p. 456 (1979). The results obtained are expressed in terms of the percent inhibition of aldose reductase enzyme activity (i.e., relative to the aldose activity in the absence of inhibitor) afforded by the compound at three different molar concentration levels (viz., 10^-5, 10^-6 and 10^-7 M).

## C[C@@H]1C[C@]2(CC(=O)NC2=O)c2cc(F)ccc2C1=O (relative stereo) [Example 1, Rel 1,3'S, 3R Spiro[naphthalene-1(4H), 3'-pyrrolidine]-2', 4,5'-trione-2,3-dihydro-7-fluoro-3-methyl]
[1]; lens, 1.0 mg./kg. oral at 4, 7 and 24 h after streptozotocin
  percent inhibition of sorbitol: 39%
[1]; lens, 1.5 mg./kg. oral at 4, 7 and 24 h after streptozotocin
  percent inhibition of sorbitol: 39%
[1]; sciatic nerve, 1.0 mg./kg. oral at 4, 7 and 24 h after streptozotocin
  percent inhibition of sorbitol: 69%
[1]; sciatic nerve, 1.5 mg./kg. oral at 4, 7 and 24 h after streptozotocin
  percent inhibition of sorbitol: 76%
[2]; in 1:1 dioxane-water
  pKa: 9.59
[2]; in water
  pKa: 8.25
[3]; 10^-5 M
  inhibition at 10 µM: 78%
[3]; 10^-6 M
  inhibition at 1 µM: 41%
[3]; 10^-7 M
  inhibition at 0.1 µM: 3%
